Results reported in patent US20060280725A1, “Compositions and methods of treating and diagnosing hepatoma” (priority 2003, published 2006).
Where two headings read alike, the source gives them in different places.

Assays:
System A & N isoforms = conditions: read-out: deduced Km values for glutamine; cited from earlier work
[1] = system: human fetal liver fibroblasts (HFLF); assay: Glutamine transport assay (inhibition and kinetic analysis); assay type: cell-based
Protocol: FIG. 5. Functional and molecular assessment of ATB^0 expression in human fetal liver fibroblasts (HFLF) and cirrhotic liver tissue. A) Amino acid inhibition analysis of Na^+-dependent glutamine uptake in human fetal liver fibroblasts. Fibroblasts were isolated and cultured as described in the Methods section, and amino acid inhibition analysis of 50 μM L-glutamine uptake was carried out as described in FIG. 1. *p<0.010 vs. control. The Eadie-Hofstee plot of the kinetic analysis is shown as an inset, with the dashed lines representing the resolved high and low affinity components of the composite data (solid line). The derived values of the kinetic constants for each component are given in the Results section. B) Northern blot analysis of ATB^0 expression in HFLF. Radiolabeled cDNA probes were generated with the Megaprime™ kit as described in the Methods section, and hybridized to 20 μg of total RNA from HFLF. Exposure time was 24 h. C) RT-PCR and restriction enzyme analysis of ATB^0 expression in HFLF, normal and cirrhotic liver. The analysis was carried out exactly as described in FIG. 3. Omission of RT is shown for the normal liver sample. D) Expression of ATB^0 in biopsies from a patient with liver cirrhosis and hepatocellular carcinoma (HCC). Northern blot analysis of ATB^0 & SN1 expression were performed on RNA extracted from the snap-frozen biopsies. RNA isolation and northern blot analysis was carried out as described in the Methods section, with full-length riboprobes used for detection of transporter mRNA. Exposure times for the blots are shown to illustrate relative expression levels for ATB^0 in each of the samples.
Glutamine Transport Assays. Measurement of initial-rate glutamine uptake was carried out via the cluster-tray method originally described by Gazzola (21) as reported previously (6, 9). Briefly, after trypsinization hepatoma cells were plated at a density of 1×10^5 cells/well in 24-well culture plates (Costar Corp., Cambridge, Mass.) and allowed to grow to >80% confluence, typically one to two days later. For initial-rate measurements, the radiotracer utilized was L-[G-^3H] glutamine (Amersham Corp., Arlington Heights, Ill.) at 4 μCi/ml, in the presence of unlabeled L-glutamine at 50 μM. For kinetic studies, the amount of unlabeled glutamine in the transport buffer varied from 10 μM to 10 mM. All transport measurements were carried out at 37° C. and were terminated after 30 s by three rapid washes with an ice-cold phosphate-buffered saline solution. Intracellular radiolabeled glutamine was extracted with 0.2 ml/well of 0.2% sodium dodecyl sulfate (SDS) and 0.2 N NaOH; after 1 h, 0.1 ml of the lysate was neutralized with 10 μl of 2 N HCl and subjected to scintillation spectrophotometry in a Packard TopCount™ (Packard Instruments, Meriden, Conn.). The remaining lysate was utilized for the determination of cellular protein by the bicinchoninic acid (BCA) method (Pierce Chemical Co., Rockford, Ill.). Rates of glutamine transport were calculated from the cpm per sample, the specific activity of the uptake mix (in cpm/nmol) and normalized to cellular protein content in a Microsoft Excel® spreadsheet program. Transport values obtained in the absence of extracellular Na^+ (diffusion and Na^+-independent uptake) were subtracted from those in the presence of Na^+ (total uptake) to yield Na^+-dependent rates which are reported in units of nmol•mg^−1 protein•30 s^−1. All transport values depicted are the average±standard deviation of four separate determinations. Kinetic analysis of Eadie-Hofstee linearized transport data (v vs. v/[L-GLN]) was performed by regression analysis (Cricket Graph®, Computer Associates, Islandia, N.Y.). Nonlinear regression analysis was performed with DataDesk (Data Description, Inc. Ithaca, N.Y.) and Excel for two component Michaelis-Menten kinetics: v=((Vmax1×[S])/(Km1+[S])+(Vmax2×[S])/(Km2+[S])). […]

Km ([1]; read-out: Km, high affinity component): 163 µM | Km ([1]; read-out: Km, low affinity component): 1200 µM
Compound: NC(=O)CC[C@H](N)C(=O)O [glutamine, L-glutamine]
Km (System A & N isoforms): 1000 to 3000 µM | Vmax, high affinity component [1]: 5.3 nmol•mg^−1 protein•30 s^−1 | Vmax, low affinity component [1]: 3.1 nmol•mg^−1 protein•30 s^−1
